Data set [1] in a line: Cytotoxicity in the host L6 cells. In kind it is cell-based, rat. The following applies: rat, L6 cells (rat skeletal myoblasts); cytotoxicity in host L6 cells; read-out: Cyt. L6 IC50. How it is done:
(§1) Compounds in Table 1 were screened for anti-parasitic activity against three trypanosomatids: T. cruzi, T. b. rhodesiense and Leishmania donovani and compared with previously made analogs shown in orange and designated with a. […] In addition, compounds were tested for toxicity in L6 rat skeletal myoblasts, the host cells for T. cruzi amastigotes, in order to calculate a selectivity index for each parasite [SI = IC50L6/IC50parasite] (Table 1). The TDR (Special Programme for Research and Training in Tropical Diseases, World Health Organization) criteria were adopted to interpret antiparasitic activity and selectivity.
(§2) In vitro activity against T. cruzi, T. b. rhodesiense, L. donovani and cytotoxicity assessment using L6 cells (rat skeletal myoblasts) was determined using a 96-well plate format as previously described. Data were analyzed with the graphic program Softmax Pro (Molecular Devices, Sunnyvale, CA, USA), which calculated IC50 values by linear regression from the sigmoidal dose inhibition curves.

The subject of data set [2] is T. cruzi, strain Tulahuen C4 amastigotes. The data set is described as follows: In vitro activity against T. cruzi. The conditions noted are these: for SI (T. c.): IC50 in L6 cells/IC50 in T. cruzi; for IC50: Trypanosoma cruzi, T. cruzi Tulahuen C4 amastigotes, means of 2 to 3 measurements, SD < 5%, read-out: T. c. IC50; for Bnz/comp: fold antichagasic potency relative to Bnz (T. cruzi IC50 ratio). The format is cell-based.
Experimental: (§3) The concentration of compound that inhibits parasite growth by 50% (IC50) was calculated from dose response curves for each parasite (Table 1). In addition, compounds were tested for toxicity in L6 rat skeletal myoblasts, the host cells for T. cruzi amastigotes, in order to calculate a selectivity index for each parasite [SI = IC50L6/IC50parasite]
(§4) In vitro activity against T. cruzi, T. b. rhodesiense, L. donovani and cytotoxicity assessment using L6 cells (rat skeletal myoblasts) was determined using a 96-well plate format as previously described [37]. Data were analyzed with the graphic program Softmax Pro (Molecular Devices, Sunnyvale, CA, USA), which calculated IC50 values by linear regression from the sigmoidal dose inhibition curves.

The subject of data set [3] is bloodstream form T.b. brucei recombinant parasites expressing wild type (-tet) or elevated (+tet) levels of TbNTR. The data set is described as follows: microbe, parasite or virus in culture. The format is cell-based. The conditions noted are these: Trypanosoma brucei.
Experimental: The BSF of T. brucei parasites were seeded at 1 × 10^3 mL^−1 in 200 μL of growth medium containing different concentrations of nitroheterocycle. Where appropriate, induction of the TbNTR was carried out by adding tetracycline (1 μg/mL). After incubation for 3 days at 37 °C, 20 μL of Alamar blue was added to each well and the plates incubated for a further 16 h. The cell density of each culture was determined as described before [20] and the IC50 established.
Data set [4] has as its system bloodstream form T.b. brucei wild type. The data set is described as follows: T. brucei antiproliferating assay, wild type. In kind it is cell-based. The conditions noted are these: means from 4 experiments ± SD. How it is done:
The BSF of T. brucei parasites were seeded at 1 × 10^3 mL^−1 in 200 μL of growth medium containing different concentrations of nitroheterocycle. Where appropriate, induction of the TbNTR was carried out by adding tetracycline (1 μg/mL). After incubation for 3 days at 37 °C, 20 μL of Alamar blue was added to each well and the plates incubated for a further 16 h. The cell density of each culture was determined as described before and the IC50 established.

Data set [5] concerns T.b. rhodesiense, strain STIB 900 trypomastigotes. The data set is described as follows: In vitro activity against T. b. rhodesiense. The format is cell-based. The conditions noted are these: for SI (T.b.r.): IC50 in L6 cells/IC50 in T.b. rhodesiense; for IC50: Trypanosoma brucei, T.b. rhodesiense STIB 900 trypomastigotes, means of 2 to 3 measurements, SD < 5%, read-out: T.b.r. IC50; for fold more potent against T. b. rhodesiense than the corresponding acetamide: propanamide vs acetamide analog; for anti-HAT activity class (TDR criteria): T. b. rhodesiense. How it is done: as §1, §2

The test system of data set [6] is purified his-tagged recombinant TbNTR. The data set is described as follows: Enzymatic activity with type I TbNTR. The format is biochemical, T. brucei. The conditions noted are these: substrate 100 μM, NADH 100 μM. How it is done: Enzyme specific activity was measured as oxidized NADH (nmol) per min per mg of protein. […] As we have reported before with other classes of 3-nitrotriazole-based antitrypanosomal compounds, no correlation between anti-HAT activity and TbNTR specific activity was observed, [13], [15], [16], [17], [18].
Recombinant TbNTR was prepared and assayed as previously described, [39]. The specific activity of purified his-tagged TbNTR was assessed spectrophotometrically at 340 nm using various nitrotriazole substrates (100 μM) and NADH (100 μM) and expressed as nmol NADH oxidized min^−1 mg^−1 of enzyme.

The test system of data set [7] is transgenic T. cruzi parasites expressing firefly luciferase. In kind it is in vivo, Balb/c mice. How it is done:
A fast luminescence assay was used in an acute infected murine model, in which transgenic T. cruzi parasites expressing firefly luciferase were injected in 5 week-old Balb/c mice. Mice were injected with D-luciferin before imaging. Groups of 5 mice/group were treated i.p. for 10 consecutive days with each compound, at 13 or 15 mg/kg/day. […] The mean ratio of parasite levels was calculated after 5 and 10 days of treatment.
For in vivo studies, a Brazilian strain trypomastigotes from transgenic T. cruzi parasites expressing firefly luciferase were used as described before. Briefly, parasites (10^5 trypomastigotes) were injected in 5 week-old Balb/c mice (Taconic) and three days later mice were anesthesized by inhalation of isofluorane, followed by an injection with 150 mg/kg of D-luciferin potassium-salt in PBS. Mice were imaged 5–10 min after injection of luciferin with an IVIS 100 (Xenogen, Alameda, CA) and the data acquisition and analysis were performed with the software LivingImage (Xenogen) as described before. Treatment with test compounds started 4 days post infection at 13 or 15 mg/kg/day × 10 days, given i.p. The vehicle control was 2% methylcellulose +0.5% Tween 80 and groups of 5 mice/group were used. Mice were imaged after 5 and 10 days of treatment. The ratio of parasite levels was calculated for each animal dividing the luciferase signal after treatment by the luciferase signal on the first imaging (before treatment). Mean values of all animals in each group ± SD were used for plotting.

Data set [8] relates to L. donovani axenic, strain MHOM-ET-67/L82 amastigotes. The data set is described as follows: In vitro activity against L. donovani. The format is cell-based. The following applies: for IC50: Leishmania donovani, L. donovani axenic amastigotes MHOM-ET-67/L82, means of 2 to 3 measurements, SD < 5%, read-out: L.d. IC50; for SI (L.d.): IC50 in L6 cells/IC50 in L. donovani; for antileishmanial activity class (TDR criteria): L. donovani.
Experimental: as §3, §4

Data set [9] deals with L6 cells (rat skeletal myoblasts). Further details: method as in PMID 26344593, PMID 25580906. The conditions noted are these: previously evaluated compounds (orange, designated a); read-out: Cyt. L6 IC50; cited from earlier work.
Data set [10] deals with T.b. rhodesiense, strain STIB 900 trypomastigotes. Further details: method as in PMID 26344593, PMID 25580906. The conditions noted are these: previously evaluated compounds (orange, designated a); read-out: T.b.r. IC50; cited from earlier work.
The test system of data set [11] is L. donovani axenic, strain MHOM-ET-67/L82 amastigotes. Further details: method as in PMID 26344593, PMID 25580906. The conditions noted are these: cited from earlier work; for SI (L.d.): IC50 L6/IC50 parasite, previously evaluated compounds; for IC50: previously evaluated compounds (orange, designated a), read-out: L.d. IC50.
The subject of data set [12] is T. cruzi, strain Tulahuen C4 amastigotes. The following applies: cited from earlier work; for SI (T. c.): IC50 L6/IC50 parasite; for SI (T. c.) / Bnz/comp: previously evaluated compounds; for Bnz/comp: fold potency relative to Bnz.
Setting [13] is: read-out: IC50 value T.b. brucei TbNTR (+tet).
Setting [14] is: read-out: IC50 value T.b. brucei TbNTR (-tet).
Setting [15] is: Trypanosoma brucei, read-out: IC50 value T.b. brucei Wild type, bloodstream form.

Where two headings read alike, the source gives them in different places. A value given as a limit tells only on which side of the number the result lay.

Regarding `O=C(CCn1cnc([N+](=O)[O-])n1)Nc1ccc(Oc2ccc(Cl)cc2)cc1` [Compound 6, N-(4-(4-chlorophenoxy)phenyl)-3-(3-nitro-1H-1,2,4-triazol-1-yl)propanamide], the IC50 in data set [1] is 17300 nM; in data set [2] it was 5 nM; in data set [3] (setting [13]) it was 340 nM; in [3] (setting [14]) it was 620 ± 30 nM; in [4] (setting [15]) it was about 650 nM; in data set [4] (read-out: IC50 value T.b. brucei Wild type, bloodstream form), 640 ± 20 nM. For the same compound, the IC50 in [5] was found to be 41 nM; in data set [8] it was 1150 nM. For the same compound, the “SI (T. c.)” value in [2] came out at 3343. In addition, the Bnz/comp in data set [2] was found to be 441. Further, the “SI (T.b.r.)” value in data set [5] was found to be 418. The “fold more potent against T. b. rhodesiense than the corresponding acetamide” value in data set [5] came to 32 fold. Moreover, the “TbNTR specific enzyme activity, fold greater than benznidazole” value in data set [6] is listed as at most 4 fold. For the same compound, the “toxicity symptoms in treated mice” value in [7] (13 mg/kg/day i.p. x 10 days) is on record as “did not look very healthy, although no deaths occurred”. For the same compound, the “parasite load after 10 days of treatment” value in [7] (13 mg/kg/day i.p. x 10 days, acute murine model, p < 0.0001) is on record as “undetectable levels”. Also, the “parasitic level after 5-day treatment” value in [7] (13 mg/kg/day i.p., compared to untreated control) is “Statistically significant reduction in parasitic level”.

`O=C(Cn1cnc([N+](=O)[O-])n1)Nc1cc(-c2ccc(F)cc2)on1` [Compound 13, N-(5-(4-fluorophenyl)isoxazol-3-yl)-2-(3-nitro-1H-1,2,4-triazol-1-yl)acetamide]: the melting point is over 220 °C. Moreover, the IC50 in [1] was 201000 nM. For the same compound, in data set [2], the “SI (T. c.)” value was 590, the IC50 was found to be 340 nM and the Bnz/comp is given as 6.5. Further, the IC50 in data set [4] (setting [15]) turned out to be 26600 ± 6020 nM. Besides, in data set [5], the “SI (T.b.r.)” value was found to be 25.1, the “anti-HAT activity class (TDR criteria)” value is “inactive” and the IC50 is 8000 nM. The “TbNTR specific enzyme activity, fold greater than benznidazole” value in data set [6] is at most 4 fold. In data set [8], the “SI (L.d.)” value came to 20.5, the “antileishmanial activity class (TDR criteria)” value (“antileishmanial activity class” for short) is “inactive” and the half-maximal inhibitory concentration (IC50) came to 9790 nM.

`O=C(Cn1cnc([N+](=O)[O-])n1)Nc1ccc(Oc2ccc(F)cc2)cc1` [Compound 7a]: the IC50 is 70400 nM in data set [9]; 2000 nM in [10]; 183 nM in [11]; 36 nM in data set [12] (previously evaluated compounds (orange, designated a), read-out: T. c. IC50). In data set [11], the “SI (L.d.)” value is reported as 384. For the same compound, the “SI (T. c.)” value in [12] is 1954. Also, in data set [12], the Bnz/comp is listed as 56.

As for `O=C(Cn1cnc([N+](=O)[O-])n1)Nc1ccc(Oc2ccc(Cl)cc2)cc1` [Compound 6a], the IC50 in data set [9] is 28900 nM; in data set [10], 1330 nM; in data set [11] it was 34 nM. The “SI (L.d.)” value in data set [11] is reported as 853. Also, the “SI (T. c.)” value in [12] is on record as 3615. In data set [12], the Bnz/comp was 254.

Compound `O=C(CCn1cnc([N+](=O)[O-])n1)Nc1cccc(OCc2ccccc2)c1` [Compound 11, N-(3-(benzyloxy)phenyl)-3-(3-nitro-1H-1,2,4-triazol-1-yl)propanamide] registered a melting point of 119 to 120 °C. The IC50 in [1] is 40200 nM. In [2], the “SI (T. c.)” value is recorded as 868, the IC50 was determined as 46 nM and the Bnz/comp worked out at 48. In data set [3] (setting [13]), the IC50 was 360 ± 20 nM. Moreover, in data set [3] (setting [14]), the IC50 is 3700 ± 580 nM. In data set [4] (setting [15]), the IC50 turned out to be 4250 ± 160 nM. Moreover, in data set [5], the “SI (T.b.r.)” value stood at 182, the IC50 worked out at 221 nM and the “fold more potent against T. b. rhodesiense than the corresponding acetamide” value is reported as 22 fold. Moreover, the “TbNTR specific enzyme activity, fold greater than benznidazole” value in [6] is at most 4 fold. For the same compound, in data set [8], the “SI (L.d.)” value was 35, the “antileishmanial activity class” value is “moderate activity” and the concentration for half-maximal inhibition (IC50) stood at 1140 nM. The “fold more potent against L. donovani than the acetamide analog” value in data set [8] (propanamide vs acetamide analog) is “ca. 3 fold”.

For the compound `O=C(CCn1cnc([N+](=O)[O-])n1)Nc1cc(-c2ccc(Cl)cc2)no1` [Compound 14, N-(3-(4-chlorophenyl)isoxazol-5-yl)-3-(3-nitro-1H-1,2,4-triazol-1-yl)propanamide], the IC50 in data set [1] came out at 179000 nM; in [2] it was 251 nM; in data set [3] (setting [13]) it was 290 ± 20 nM; in data set [3] (setting [14]), 910 ± 30 nM; in data set [4] (setting [15]) it was 270 ± 50 nM; in data set [5], 651 nM. In data set [8], the IC50 was found to be 2950 nM. The Bnz/comp in data set [2] was found to be 9. For the same compound, the “anti-HAT activity class (TDR criteria)” value in data set [5] is “moderately active (IC50 between 0.5 and 6.0 μM)”. Also, the “substrate of TbNTR / rate of metabolism” value in data set [6] is “equivalent rates”. In [8], the “antileishmanial activity class” value was “moderately active (‘moderate activity’ (IC50 between 1.0 and 6.0 μM))”.

As for `O=C(Cn1cnc([N+](=O)[O-])n1)Nc1cc(-c2ccc(Cl)cc2)no1` [Compound 15, N-(3-(4-chlorophenyl)isoxazol-5-yl)-2-(3-nitro-1H-1,2,4-triazol-1-yl)acetamide], the IC50 turned out to be 112000 nM in [1]; 1530 nM in data set [2]; 1230 ± 60 nM in [3] (setting [13]); 13300 ± 1400 nM in data set [3] (setting [14]); 8650 ± 490 nM in [4] (setting [15]); 15100 nM in data set [5]. In data set [8], the IC50 was 12500 nM. Further, the Bnz/comp in [2] was found to be 1.4. In addition, in data set [5], the “anti-HAT activity class (TDR criteria)” value is “inactive”. Also, the “substrate of TbNTR / rate of metabolism” value in data set [6] was “equivalent rates”. Also, the “antileishmanial activity class” value in [8] is “inactive”.

As usually defined, the IC50 is the point on the concentration scale where inhibition reaches its midpoint. As usually defined, the melting point is the temperature of the solid-liquid transition.

The record behind these values is article PMC5049494, “Nitrotriazole-based acetamides and propanamides with broad spectrum antitrypanosomal activity” (European Journal of Medicinal Chemistry, 2016).
